In one test the test system is histamine H3 receptor. The note with it: statement taken from the literature; cited from earlier work.
Test [1] relates to tibialis anterior muscle damaged by snake venom cardiotoxin (CTX). Put plainly: Muscle regeneration in cardiotoxin (CTX) muscle-damage model mouse, regenerated single muscle fiber area. Conditions: once a day; for increase in the mean muscle fiber area as compared with the Vehicle administration group: day before CTX to 6 days after CTX, muscle collected 7 days after CTX; for histogram of the regenerated single-muscle fiber area as compared with the Vehicle administration group: 7 days after CTX. The class given is in vivo, mouse (C57BL/6). As to the method: Seven-week old C57BL/6 Male mice (CLEA Japan, Inc.) were purchased, and used for experiment at the age of 8 weeks.
A model animal to which muscle damage had been caused by administration of snake venom cardiotoxin (CTX) was used. The muscle-damaged model animal has been widely used in studies on the regeneration from muscle damage.
Under the anesthesia with isoflurane, 50 μL of 10 μM CTX was administered to the tibialis anterior muscle of the right hindlimb of the mouse. After 7 days of the administration of CTX, the tibialis anterior muscle was collected by dissection, and supplied to the preparation of a muscle tissue section.
Immediately after the collection of the tibialis anterior muscle, the tibialis anterior muscle was immersed in isopentane cooled with liquid nitrogen and was rapidly frozen. The frozen muscle tissue was cut into slices each having a thickness of 10 μm by using a cryostat (Leica Biosystems), and the slice was attached onto an antistripping coated slide glass (Matsunami Glass Ind., Ltd.).
A muscle tissue section was sufficiently air dried for 30 minutes under room temperature. After that, the muscle tissue section was fixed by immersing it in acetone cooled to −30° C. and treating at −30° ° C. for 20 minutes. The fixed section was air dried once and washed with PBS. Then the section was blocked by dropwisely adding a blocking reagent (Blocking One, NACALAI TESQUE, INC.) to the section and being subjected to the blocking treatment for 1 hour. Next, a primary antibody (Anti-laminin-2 (α-2 Chain) antibody, Rat monoclonal (Sigma-Aldrich)) obtained by being diluted 500 times with the blocking reagent was added dropwise, and the reaction was conducted at overnight at 4° C. Since laminin to which a primary antibody binds is a protein expressed in all muscle cells, the primary antibody was used in this experiment in order to measure the area of individual muscle cells in a section. The muscle tissue section after the reaction with the primary antibody was washed with PBS, and then was reacted for 1 hour with a secondary antibody (CF 488A Goat Anti-Rat IgG (H+L) (Biotium)) obtained by being diluted 500 times with the blocking reagent. The secondary antibody that is an anti-rat antibody conjugated with a fluorescent dye binds to the primary antibody, and stains the laminin. The muscle tissue section after the reaction with the secondary antibody was washed with PBS, and sealed by using “[…] Hard. Set with DAPI” (Vector), and then the fluorescence observation was performed with an inverted microscope FSX100 (Olympus). The “[…] Hard Set with DAPI” was used for staining the central nucleus of muscle cells.
The muscle regeneration was evaluated on the basis of the image data taken from the fluorescence observation. In this experiment, muscle cells each having a central nucleus (single muscle fiber having a central nuclei) were used as an indicator for regenerated muscle. After the image data was taken into image analysis software ImageJ (NIH), a muscle cell having a central nucleus was extracted. The cross-sectional area of the extracted individual cells was measured on the basis of the cell membrane stained with laminin. For the area measurement, “Analyze Particles” that is an add-in analysis program on ImageJ was used. The measurement results were shown as a distribution chart (histogram) of the areas and number of regenerated single-muscle fibers, and as an average value of the cross-sectional areas of all the regenerated single muscle fibers (mean muscle fiber area). […]

[2] abbreviates: 6.3 mM in PBS with 5% tween 20, 10 μL intramuscular.
[3] abbreviates: 1 μM in PBS, 10 μL intramuscular.

Where a name gives a salt, the structure may show the parent alone.

Consider `CN1CCC(Cc2c[nH]cn2)CC1` [Compound 15, 4-[(1H-imidazol-4-yl)methyl]-1-methylpiperidine], for which the “selectivity of agonist activity for the histamine H3 receptor over other histamine receptors” value (from here on “selectivity of agonist activity”) with histamine H3 receptor is given as “selective histamine H3 receptor agonist”. Regarding `C[C@@H](N)Cc1c[nH]cn1` [Compound 1, (2R)-1-(1H-imidazol-4-yl)propan-2-amine], the “selectivity of agonist activity” value in the test on histamine H3 receptor is “selective histamine H3 receptor agonist”.

Take `C[C@@H](N)Cc1c[nH]cn1` [R-α-methylhistamine dihydrochloride, (2R)-1-(1H-imidazol-4-yl)propan-2-amine]: in test [1] (setting [2]), the “increase in the mean muscle fiber area as compared with the Vehicle administration group” value (“increase in the mean muscle fiber area” below) is listed as 12.3% and the “histogram of the regenerated single-muscle fiber area as compared with the Vehicle administration group” value was “shifted to the right side”.

As for `CNCCc1c[nH]cn1` [Compound 4, 2-(1H-imidazol-4-yl)-N-methylethan-1-amine], the “selectivity of agonist activity” value with histamine H3 receptor is “non-selective histamine H3 receptor agonist”. `c1nc(CC2CCNCC2)c[nH]1` [Compound 13, 4-[(1H-imidazol-4-yl)methyl]piperidine]: the “selectivity of agonist activity” value with histamine H3 receptor is “selective histamine H3 receptor agonist”. For the compound `c1cc(Cc2c[nH]cn2)ccn1` [Compound 5, 4-[(1H-imidazol-4-yl)methyl]pyridine], in the test on histamine H3 receptor, the “selectivity of agonist activity” value is recorded as “selective histamine H3 receptor agonist”.

Turning to `CCCNC1CN(c2ccnc(N)n2)C1` [Compound 20, 4-[3-(propylamino)azetidin-1-yl]pyrimidin-2-amine], the “selectivity of agonist activity” value in the test on histamine H3 receptor was “selective histamine H3 receptor agonist”. With `CNCCc1c[nH]cn1` [N^α-methylhistamine dihydrochloride, 2-(1H-imidazol-4-yl)-N-methylethan-1-amine], in test [1] (setting [3]), the “increase in the mean muscle fiber area” value amounted to 7.1% and the “histogram of the regenerated single-muscle fiber area as compared with the Vehicle administration group” value was “shifted to the right side”. Regarding `N=C(N)SCCc1c[nH]cn1` [Imetit dihydrobromide, 2-(1H-imidazol-4-yl)ethyl carbamimidothioate], the “increase in the mean muscle fiber area” value in test [1] (1 μM in PBS, 10 μL intramuscular, unit not given) is given as 13.18. Besides, the “histogram of the regenerated single-muscle fiber area as compared with the Vehicle administration group” value in test [1] (setting [3]) is on record as “shifted to the right side”.

Take `c1cc(Cc2c[nH]cn2)ccn1` [Immethridine dihydrobromide, 4-[(1H-imidazol-4-yl)methyl]pyridine]: in test [1] (setting [3]), the “increase in the mean muscle fiber area” value worked out at 14.0% and the “histogram of the regenerated single-muscle fiber area as compared with the Vehicle administration group” value is reported as “shifted to the right side”.

Source of the values: patent US20240269123A1, “MUSCLE REGENERATION PROMOTER” (priority 2021, published 2024).
